According to the supplement of paper PMC11061612:

Assays:
Experiment in all cases: combination Emax (second highest fraction inhibited in the dose matrix, 72 h); higher = more inhibition; extreme values may be limits of the assay
SH-4 (Melanoma) = system: SH-4 (Melanoma)
How it was run: (§1)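 Bliss excess equals the observed combination effect minus the expected value EA + EB − EA·EB, where EA and EB are the effects of each agent alone. Combination Emax is the second-highest inhibition within the matrix. Inhibition was scaled from CellTiter-Glo 2.0 luminescence, with 0 set by vehicle wells and 1 by blank wells, after 72 hours of two-drug dosing of cells plated in 1536-well plates.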

[1] = system: RKO (Colorectal Carcinoma)
How it was run: as §1

[2] = system: Hs-633T (Other Solid Carcinomas)
How it was run: as §1

Mewo (Melanoma) = system: Mewo (Melanoma)
How it was run: as §1

NCI-H28 (Mesothelioma) = system: NCI-H28 (Mesothelioma)
How it was run: as §1

[3] = system: RPMI-6666 (Non-Cancerous)
How it was run: as §1

[4] = system: 8305C (Thyroid Gland Carcinoma)
How it was run: as §1

[5] = system: SW1271 (Small Cell Lung Carcinoma)
How it was run: as §1

[6] = system: MDA-MB-468 (Breast Carcinoma)
How it was run: as §1

[7] = system: LoVo (Colorectal Carcinoma)
How it was run: as §1

[8] = system: PCI-30 (Head and Neck Carcinoma)
How it was run: as §1

[9] = system: RT-112 (Bladder Carcinoma)
How it was run: as §1

[10] = system: HARA (Squamous Cell Lung Carcinoma)
How it was run: as §1

[11] = system: NCI-H69 (Small Cell Lung Carcinoma)
How it was run: as §1

[12] = system: HO-1-u-1 (Oral Cavity Carcinoma)
How it was run: as §1

[13] = system: CAL-54 (Kidney Carcinoma)
How it was run: as §1

[14] = system: EN (Endometrial Carcinoma)
How it was run: as §1

HMV-II (Melanoma) = system: HMV-II (Melanoma)
How it was run: as §1

NCI-H2461 (Mesothelioma) = system: NCI-H2461 (Mesothelioma)
How it was run: as §1

[15] = system: CAPAN-1 (Pancreatic Carcinoma)
How it was run: as §1

| Compound | combination Emax (SH-4 (Melanoma)) | combination Emax [1] | combination Emax [2] | combination Emax (Mewo (Melanoma)) | combination Emax (NCI-H28 (Mesothelioma)) | combination Emax [3] | combination Emax [4] | combination Emax [5] | combination Emax [6] | combination Emax [7] | combination Emax [8] | combination Emax [9] | combination Emax [10] | combination Emax [11] | combination Emax [12] | combination Emax [13] | combination Emax [14] | combination Emax (HMV-II (Melanoma)) | combination Emax (NCI-H2461 (Mesothelioma)) | combination Emax [15] |
| --- | --- | --- | --- | --- | --- | --- | --- | --- | --- | --- | --- | --- | --- | --- | --- | --- | --- | --- | --- | --- |
| N#Cc1cnc(Nc2cc(NC[C@H]3CNCCO3)c(C(F)(F)F)cn2)cn1 [SRA737] + O=c1[nH]cc(F)c(=O)[nH]1 [5-Fluorouracil] (first compound max 10 µM, 7x7, partner max 20 µM) | 0.383 | 0.656 | 0.413 | 0.38 | 0.28 | 0.901 | 0.392 | 0.156 | 0.344 | 0.652 | 0.226 | 0.712 | 0.89 | 0.152 | 0.667 | 0.565 | 0.483 | 0.303 | 0.526 | 0.349 |
| O=C(c1cc(Cc2n[nH]c(=O)c3ccccc23)ccc1F)N1CCN(C(=O)C2CC2)CC1 [Olaparib] + CC1(C)CCC(CN2CCN(c3ccc(C(=O)NS(=O)(=O)c4ccc(NCC5CCOCC5)c([N+](=O)[O-])c4)c(Oc4cnc5[nH]ccc5c4)c3)CC2)=C(c2ccc(Cl)cc2)C1 [Venetoclax] (first compound max 10 µM, 7x7, partner max 1 µM) | 0.148 | 0.191 | 0.186 | 0.0337 | 0.118 | 0.72 | 0.232 | 0.201 | 0.314 | 0.206 | 0.173 | 0.0956 | 0.137 | 0.614 | 0.117 | 0.177 | 0.29 | 0.129 | 0.203 | 0.225 |
| C[C@@H]1COCCN1c1cc(C2([S@](C)(=N)=O)CC2)nc(-c2ccnc3[nH]ccc23)n1 [AZD6738] + C1CC(C1)(C(=O)[O-])C(=O)[O-].N.N.[Pt+2] [Carboplatin] (first compound max 10 µM, 7x7, partner max 10 µM) | 0.277 | 0.932 | 0.836 | 0.526 | 0.479 | 0.7 | 0.501 | 0.356 | 0.583 | 0.8 | 0.45 | 0.679 | 0.853 | 0.373 | 0.75 | 0.695 | 0.537 | 0.454 | 0.646 | 0.384 |
| C[C@@H]1COCCN1c1cc(C2([S@](C)(=N)=O)CC2)nc(-c2ccnc3[nH]ccc23)n1 [AZD6738] + Nc1ccn([C@@H]2O[C@H](CO)[C@@H](O)C2(F)F)c(=O)n1 [Gemcitabine] (first compound max 10 µM, 7x7, partner max 0.3 µM) | 0.623 | 0.954 | 0.937 | 0.768 | 0.695 | 0.936 | 0.721 | 0.7 | 0.767 | 0.846 | 0.795 | 0.936 | 0.927 | 0.851 | 0.926 | 0.819 | 0.66 | 0.724 | 0.714 | 0.684 |
| N#Cc1cnc(Nc2cc(NC[C@H]3CNCCO3)c(C(F)(F)F)cn2)cn1 [SRA737] + Nc1ccn([C@@H]2O[C@H](CO)[C@@H](O)C2(F)F)c(=O)n1 [Gemcitabine] (first compound max 10 µM, 7x7, partner max 0.3 µM) | 0.577 | 0.923 | 0.916 | 0.788 | 0.761 | 0.933 | 0.679 | 0.647 | 0.752 | 0.789 | 0.736 | 0.899 | 0.902 | 0.778 | 0.826 | 0.792 | 0.634 | 0.64 | 0.683 | 0.657 |
| C[C@@H](Nc1cc(F)cc(F)c1)c1cc(C(=O)N(C)C)cc2c(=O)cc(N3CCOCC3)oc12 [AZD8186] + C1CN(CCC1(C(=O)N[C@@H](CCO)C2=CC=C(C=C2)Cl)N)C3=NC=NC4=C3C=CN4 [AZD5363] (first compound max 10 µM, 7x7, partner max 10 µM) | 0.214 | 0.433 | 0.297 | 0.345 | 0.359 | 0.672 | 0.369 | 0.289 | 0.571 | 0.644 | 0.313 | 0.254 | 0.467 | 0.536 | 0.752 | 0.683 | 0.536 | 0.229 | 0.457 | 0.204 |
| C[C@@H](Nc1cc(F)cc(F)c1)c1cc(C(=O)N(C)C)cc2c(=O)cc(N3CCOCC3)oc12 [AZD8186] + CC(=O)c1c(C)c2cnc(Nc3ccc(N4CCNCC4)cn3)nc2n(C2CCCC2)c1=O [Palbociclib] (first compound max 10 µM, 7x7, partner max 10 µM) | 0.233 | 0.514 | 0.586 | 0.449 | 0.434 | 0.691 | 0.564 | 0.411 | 0.571 | 0.736 | 0.353 | 0.352 | 0.589 | 0.558 | 0.378 | 0.755 | 0.387 | 0.469 | 0.447 | 0.247 |
| Cc1c2c(nn1C)CSCc1cc(n(C)n1)CSc1cc(c3ccccc3c1)OCCCc1c(C(=O)O)n(C)c3c-2c(Cl)ccc13 [AZD5991] + CS(=O)(=O)CCNCc1ccc(-c2ccc3ncnc(Nc4ccc(OCc5cccc(F)c5)c(Cl)c4)c3c2)o1 [Lapatinib] (first compound max 1 µM, 7x7, partner max 10 µM) | 0.197 | 0.455 | 0.206 | 0.481 | 0.337 | 0.555 | 0.346 | 0.424 | 0.851 | 0.491 | 0.257 | 0.827 | 0.786 | 0.443 | 0.713 | 0.529 | 0.519 | 0.64 | 0.332 | 0.261 |
| O=C(c1cc(Cc2n[nH]c(=O)c3ccccc23)ccc1F)N1CCN(C(=O)C2CC2)CC1 [Olaparib] + CN(CC[C@H](CSC1=CC=CC=C1)NC2=C(C=C(C=C2)S(=O)(=O)NC(=O)C3=CC=C(C=C3)N4CCC(CC4)[C@H](C5=CC=CC=C5C6=CC=C(C=C6)Cl)O)S(=O)(=O)C(F)(F)F)CCO [AZD4320] (first compound max 10 µM, 7x7, partner max 1 µM) | 0.162 | 0.11 | 0.2 | 0.0936 | 0.168 | 0.94 | 0.385 | 0.21 | 0.684 | 0.187 | 0.188 | 0.153 | 0.162 | 0.954 | 0.29 | 0.236 | 0.297 | 0.0872 | 0.17 | 0.663 |
| CN(CCO)CC[C@H](CSc1ccccc1)Nc1ccc(S(=O)(=O)NC(=O)c2ccc(N3CCC([C@@H](O)c4ccccc4-c4ccc(Cl)cc4)CC3)cc2)cc1S(=O)(=O)C(F)(F)F [AZD4320] + CS(=O)(=O)CCNCc1ccc(-c2ccc3ncnc(Nc4ccc(OCc5cccc(F)c5)c(Cl)c4)c3c2)o1 [Lapatinib] (first compound max 1 µM, 7x7, partner max 10 µM) | 0.239 | 0.477 | 0.452 | 0.492 | 0.826 | 0.951 | 0.677 | 0.484 | 0.963 | 0.562 | 0.369 | 0.351 | 0.906 | 0.997 | 0.983 | 0.951 | 0.229 | 0.773 | 0.512 | 0.6 |
| N#Cc1cnc(Nc2cc(NC[C@H]3CNCCO3)c(C(F)(F)F)cn2)cn1 [SRA737] + C=CCn1c(=O)c2cnc(Nc3ccc(N4CCN(C)CC4)cc3)nc2n1-c1cccc(C(C)(C)O)n1 [AZD1775] (first compound max 10 µM, partner max 1 µM) | 0.656 | 0.957 | 0.79 | 0.638 | 0.617 | 0.865 | 0.553 | 0.488 | 0.642 | 0.852 | 0.687 | 0.954 | 0.983 | 0.756 | 0.924 | 0.749 | 0.696 | 0.53 | 0.709 | 0.507 |
| CN(CCO)CC[C@H](CSc1ccccc1)Nc1ccc(S(=O)(=O)NC(=O)c2ccc(N3CCC([C@@H](O)c4ccccc4-c4ccc(Cl)cc4)CC3)cc2)cc1S(=O)(=O)C(F)(F)F [AZD4320] + C[C@@H](Nc1cc(F)cc(F)c1)c1cc(C(=O)N(C)C)cc2c(=O)cc(N3CCOCC3)oc12 [AZD8186] (first compound max 1 µM, 7x7, partner max 3 µM) | 0.308 | 0.32 | 0.503 | 0.332 | 0.297 | 0.996 | 0.669 | 0.649 | 0.789 | 0.6 | 0.321 | 0.435 | 0.361 | 0.885 | 0.369 | 0.593 | 0.354 | 0.383 | 0.337 | 0.552 |
